In assay [1] the test system is spared nerve injury-induced neuropathic pain in rats. The assay can be described thus: Spared nerve injury (SNI)-induced neuropathic pain model, thermal and mechanical pain thresholds. The class given is in vivo, rat. As to conditions: 50 μL. The method, then:
Of the three branches of the sciatic nerve the tibial and common peroneal nerves were cut and ligated leaving the sural nerve intact. Pre-surgery baselines (BL, 100%) of the thermal and mechanical pain thresholds of the ipsilateral hindpaws were measured using the Hargreaves thermal stimulator (6.0 A with a surface temperature of 30° C.; Hargreaves et al., 1988) and von Frey hair monofilaments (up-down method, Chaplan et al., 1994). […] All drug testing was conducted with this post-SNI period.
The rat recovered from anesthesia within a few minutes and the thermal and mechanical pain thresholds were determined at 0.5, 1, 2, 3, 4, 5 and 6 hour after the treatment using the methods described above.
Using the same test protocol in a different cohort of SNI rats, novel AFA-peptide 3 (0.1, 1 and 3 μM, each 50 μL) or the vehicle (50 μL) was injected into the ipsilateral hindpaws under a brief and light anesthesia condition (with 2.5% isoflurane). The thermal and mechanical pain thresholds were determined at 0.5, 1, 2, 3, 4, 5 and 6 hour after the treatment. […]

Assay [2] concerns UVB radiation-induced inflammatory pain in rat cheek. The class given is in vivo. The settings on record: topical application 10 μM, 100 μL.
Excerpt: Ultraviolet B (UVB) radiation causes cutaneous inflammation in humans and animals. One important clinical consequence of UVB-induced inflammation is causing hyperalgesia. Changes in thermal sensitivities in the area of primary UVB irradiation are well documented both in humans and in the animal models (Zhang et al., 2009). […] This model provides an experimental model of post radiation pain and can mimic one type of burn pain. To determine the magnitude of anti-inflammatory pain effects for a given drug transdermally delivered by way of microneedle delivery, the depilated rat's cheeks were exposed to an inflammatory dosage of Ultraviolet B radiation (Zhang et al., 2009).
With the skin of a rat's cheek was stretched, the circular (8 mm in diameter) fiberglass applicator of the UV Curing Device (Dymax Bluewave 200) was applied to the center of the rat's cheek. To produce an appropriate inflammation, a total dose of 1200 mJ/cm^2 UVB was administered to one rat cheek for 25 seconds. The same procedure was performed on the rat's contralateral cheek. Upon completion of UVB irradiation, all rats were returned to their home cages and were assessed for thermal pain between 24-48 hours later. […] The rats were lightly anesthetized with urethane (800 mg/kg, IP) and heat-induced withdrawal latencies of the cheeks (an indicator of C fiber stimulation responses) were measured. […] A sham control group (n=6) were only completely depilated and cleansed with ethanol wipes but without UVB challenge.
After removing patches, cheek withdrawal latencies induced by continuous and noxious heat were assessed at different time points from the end of the 20 minute treatment period up to 3 hours post treatment.
The patches were applied on the rat cheek for 20 minutes. After removing the patches, cheek withdrawal latencies induced by continuous and noxious heat were assessed at different time points up to 3 hours as described above.
(§1) After removing the patches, cheek withdrawal latencies induced by continuous and noxious heat were assessed at different time points up to 3 hours.
Accordingly, anti-inflammatory effects were examined 48 hours post-UVB and after the application of the patch. Twelve rats were subjected to UVB radiation (1200 mJ/cm^2). […] The patch was placed over the inflamed area for a period of 20 minutes. […] Sham control group rats (n=6) were completely depilated and cleansed with ethanol wipes but without any other treatment. The rats were returned to their home cages, and assessed for thermal pain responses 48 hours later. As usual, cheek withdrawal latencies in response to continuous and noxious heat were recorded over a 3-hour time period (hours 49-51 post-UVB).
as §1
After removing the patches, cheek withdrawal latencies induced by continuous and noxious heat were assessed at different time points from 20 minutes post administration up to 3 hours.
Because UVB-irradiation may increase skin permeability, a topical formulation, but not limited to the sample shown here, was made.

[3] abbreviates: daily intradermal injection 1 μM, 10 consecutive days.

Regarding “H-NFVPTNVGPFAF-NH2 [AFA-peptide 3, NH2-N-F-V-P-T-N-V-G-P-F-A-F-CONH2]”, in assay [1] (setting [3]), the “analgesic effect on repeated dosing (in words)” value is “consistent analgesic effects” and the “tolerance on repeated dosing (in words)” value is reported as “did not cause tolerance”. In addition, the “thermal and mechanical pain thresholds (in words)” value in assay [1] (local intradermal injection into SNI ipsilateral hindpaw, 0.5-6 hour after treatment, vs vehicle) is on record as “produced analgesic effects, particularly on thermal pain in a dose-related manner”. In addition, the duration of action in assay [2] stood at 2 h. Also, the “C-fiber-mediated thermal pain thresholds vs vehicle (in words)” value in assay [2] (2% propylene glycol, UVB-irradiated cheek) was “significant and substantial increase”.

Values taken from patent US10287337B2 (priority 2015, dated 2019).
